Measurements as given in patent US20260123630A1, “COMPOSITIONS INCLUDING ENCAPSULATED BIXLOZONE AND NON ENCAPSULATED BIXLOZONE” (FMC CORPORATION, priority 2022, published 2026).

Test system: corn
Test: Crop injury studies in corn
Type: in vivo
Protocol: The maximum crop injury from encapsulated and non-encapsulated bixlozone compositions were assessed for corn. The compositions were applied at post-seeding pre-emergence and post-emergence.
The numbers in parentheses indicate the application rate of the applied compositions in g ai/ha.

## CCCCCC(C)OC(=O)COc1ccc(Cl)c2cccnc12 (centres unmarked) [cloquintocet-mexyl]
post-emergence BBCH 11-12, FIG. 5
  Effect of mixture partner on crop injury (in words): no observed effect
post-emergence BBCH 13-15, FIG. 6
  Effect of mixture partner on crop injury (in words): no observed effect
